Results as given in patent US20240351997A1, “NOVEL PARP7 INHIBITOR AND USE THEREOF” (SHANGHAI QILU PHARMACEUTICAL RESEARCH AND DEVELOPMENT …, priority 2021, published 2024).

These compounds were tested against PARP7 (Homo sapiens (Human), UniProt Q7Z3E1) (assay: In vitro enzymology experiment of PARP7 (enzymatic inhibition)).
Format: biochemical
Protocol: II. In Vitro Enzymology Experiment of PARP2, 3, 5A, 5B, 7, 12, and 15
1. Preparation of 384-well histone-coated plate: 25 μL of histone solution was added to each well, and the plate was incubated overnight at 4° C.
2. Preparation of PBST buffer, blocking buffer, and assay buffer
3. The 384-well histone-coated plate was washed three times with PBST buffer. The plate was blocked by 50 μL of blocking buffer for 1 hour at room temperature. The plate was then washed three times with PBST buffer.
2000× compound was prepared in a 96-well source plate. 50 nL of the compound was transferred from the source plate to a 96-well intermediate plate, and 39.95 μL of assay buffer was added to each well. The plate was shaken well and centrifuged at 1000 rpm for 1 minute.
5 μL of compound DMSO solution was transferred to each well.
An enzyme mixture was incubated at 25° C. for 10 minutes.
10 μL of the enzyme mixture was added, and incubated with the compound at room temperature for 10 minutes.
10 μL of assay buffer was added to the negative control well of the assay plate.
The plate was then washed three times with PBST buffer.
25 μL of Stre-HRP was added.
The plate was incubated at room temperature for 1 hour and washed three times with PBS buffer.
25 μL of QuantaRed Enhancer mix was added. The plate was incubated for 10 minutes.
2.5 μL of QuantaRed Stop Solution was added to terminate the peroxidase reaction, and the plate was shaken for 10 to 30 seconds.
7. Paradigm was used to read the plate immediately to detect the readings at Ex550/Em620.
Using equation (1) to fit the data in Excel to obtain inhibition values
Using equation (2) to fit the data in XL-Fit to obtain IC50 values
Y is the percentage of inhibition, and X is the compound concentration.

Chain of PARP7 (Q7Z3E1 whole entry): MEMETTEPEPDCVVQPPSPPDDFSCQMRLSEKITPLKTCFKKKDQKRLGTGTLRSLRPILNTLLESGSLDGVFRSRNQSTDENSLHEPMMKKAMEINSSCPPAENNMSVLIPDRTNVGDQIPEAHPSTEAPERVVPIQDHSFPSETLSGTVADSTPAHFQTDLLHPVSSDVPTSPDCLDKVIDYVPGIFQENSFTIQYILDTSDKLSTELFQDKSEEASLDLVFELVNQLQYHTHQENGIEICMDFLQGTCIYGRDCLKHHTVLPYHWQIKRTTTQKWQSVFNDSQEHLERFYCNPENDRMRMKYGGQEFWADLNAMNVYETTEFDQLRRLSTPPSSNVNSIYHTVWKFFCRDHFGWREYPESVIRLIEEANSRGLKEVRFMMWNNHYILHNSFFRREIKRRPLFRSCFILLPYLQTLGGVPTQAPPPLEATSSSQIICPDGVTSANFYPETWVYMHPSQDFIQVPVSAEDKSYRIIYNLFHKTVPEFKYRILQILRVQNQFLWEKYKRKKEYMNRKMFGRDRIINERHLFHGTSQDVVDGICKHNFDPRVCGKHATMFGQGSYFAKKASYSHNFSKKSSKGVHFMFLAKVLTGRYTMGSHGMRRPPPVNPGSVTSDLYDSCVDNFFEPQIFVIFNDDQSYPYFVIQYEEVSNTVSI

In order of rising IC50:
1. C[C@@H](Cc1c[nH]c(=O)c(C(F)(F)F)c1)OC(=O)N1CCN(c2ncc(C(F)F)cn2)CC1 [Example 50, (S)-1-(6-Oxo-5-(trifluoromethyl)-1,6-dihydropyridin-3-yl)propan-2-yl 4-(5-(difluoromethyl)pyrimidin-2-yl)piperazine-1-carboxylate]  0.52 nM
2. C[C@@H](Cc1c[nH]c(=O)c(C(F)(F)F)c1)OC(=O)N1CCN(c2ncc(F)cn2)CC1 [Example 65, (S)-1-(6-Oxo-5-(trifluoromethyl)-1,6-dihydropyridin-3-yl)propan-2-yl 4-(5-fluoropyrimidin-2-yl)piperazine-1-carboxylate]  0.65 nM
3. Cc1cc(Cc2c[nH]c(=O)c(C(F)(F)F)c2)cc(C(=O)N2CCN(c3ncc(C(F)(F)F)cn3)CC2)c1 [Example 61, 5-(3-Methyl-5-(4-(5-(trifluoromethyl)pyrimidin-2-yl)piperazine-1-carbonyl)benzyl)-3-(trifluoromethyl)pyridin-2(1H)-one]  0.72 nM
4. O=C(CO[C@H]1CCC[C@@H]1c1c[nH]c(=O)c(C(F)(F)F)c1)N1CCN(c2ncc(C(F)(F)F)cn2)CC1 [Example 57, 5-((1R,2S)-2-(2-Oxo-2-(4-(5-(trifluoromethyl)pyrimidin-2-yl)piperazin-1-yl)ethoxy)cyclopentyl)-3-(trifluoromethyl)pyridin-2(1H)-one]  0.74 nM
5. C[C@@H](Cc1c[nH]c(=O)c(C(F)(F)F)c1)OC(=O)N1CCN(c2ncc(C(F)(F)F)s2)CC1 [Example 49, (S)-1-(6-Oxo-5-(trifluoromethyl)-1,6-dihydropyridin-3-yl)propan-2-yl 4-(5-(trifluoromethyl)thiazol-2-yl)piperazine-1-carboxylate]  0.76 nM
6. Cc1cc(CC(C)OC(=O)N2CCN(c3ncc(C(F)(F)F)cn3)CC2)c[nH]c1=O (stereo not drawn) [Example 67, 1-(5-Methyl-6-oxo-1,6-dihydropyridin-3-yl)propan-2-yl 4-(5-(trifluoromethyl)pyrimidin-2-yl)piperazine-1-carboxylate]  0.76 nM
7. CC(Cc1c[nH]c(=O)c(C(F)(F)F)c1)OC(=O)N1CCN(c2ncc(Cl)cn2)CC1 (stereo not drawn) [Example 44, 1-(6-Oxo-5-(trifluoromethyl)-1,6-dihydropyridin-3-yl)propan-2-yl 4-(5-chloropyrimidin-2-yl)piperazine-1-carboxylate]  0.8 nM
8. Cc1cnc(N2CCN(C(=O)OC(C)Cc3c[nH]c(=O)c(C(F)(F)F)c3)CC2)nc1 (stereo not drawn) [Example 43, 1-(6-Oxo-5-(trifluoromethyl)-1,6-dihydropyridin-3-yl)propan-2-yl 4-(5-methylpyrimidin-2-yl)piperazine-1-carboxylate]  0.9 nM
9. O=C(OCC1CCCC1c1c[nH]c(=O)c(C(F)(F)F)c1)N1CCN(c2ncc(C(F)(F)F)cn2)CC1 (stereo not drawn) [Example 59, (2-(6-Oxo-5-(trifluoromethyl)-1,6-dihydropyridin-3-yl)cyclopentyl)methyl 4-(5-(trifluoromethyl)pyrimidin-2-yl)piperazine-1-carboxylate]  1.06 nM
10. O=C(OCC1(c2c[nH]c(=O)c(C(F)(F)F)c2)CC1)N1CCN(c2ncc(C(F)(F)F)cn2)CC1 [Example 41, (1-(6-Oxo-5-(trifluoromethyl)-1,6-dihydropyridin-3-yl)cyclopropyl)methyl 4-(5-(trifluoromethyl)pyrimidin-2-yl)piperazine-1-carboxylate]  1.1 nM
11. O=C(c1ccc(F)c(Cc2c[nH]c(=O)c(C(F)(F)F)c2)c1)N1CCN(c2ncc(C(F)(F)F)cn2)CC1 [Example 68, 5-(2-Fluoro-5-(4-(5-(trifluoromethyl)pyrimidin-2-yl)piperazine-1-carbonyl)benzyl)-3-(trifluoromethyl)pyridin-2(1H)-one]  1.11 nM
12. C[C@@H](Cc1c[nH]c(=O)c(C(F)(F)F)c1)OC(=O)N[C@@H]1CCN(c2ncc(C(F)(F)F)cn2)C1 [Example 52, (S)-1-(6-Oxo-5-(trifluoromethyl)-1,6-dihydropyridin-3-yl)propan-2-yl ((R)-1-(5-(trifluoromethyl)pyrimidin-2-yl)pyrrolidin-3-yl)carbamate]  1.18 nM
13. C[C@@H](Cc1c[nH]c(=O)c(C(F)(F)F)c1)OC(=O)N[C@H]1CCN(c2ncc(C(F)(F)F)cn2)C1 [Example 51, (S)-1-(6-Oxo-5-(trifluoromethyl)-1,6-dihydropyridin-3-yl)propan-2-yl ((S)-1-(5-(trifluoromethyl)pyrimidin-2-yl)pyrrolidin-3-yl)carbamate]  1.34 nM
14. CC(Cc1c[nH]c(=O)c(C(F)(F)F)c1)OC(=O)N1CCN(c2ncccn2)CC1 (stereo not drawn) [Example 42, 1-(6-Oxo-5-(trifluoromethyl)-1,6-dihydropyridin-3-yl)propan-2-yl 4-(pyrimidin-2-yl)piperazine-1-carboxylate]  1.46 nM
15. C[C@@H](Cc1c[nH]c(=O)c(C(F)(F)F)c1)OC(=O)N1CC[C@H](Nc2ncc(C(F)(F)F)cn2)C1 [Example 66, (S)-1-(6-Oxo-5-(trifluoromethyl)-1,6-dihydropyridin-3-yl)propan-2-yl (S)-3-((5-(trifluoromethyl)pyrimidin-2-yl)amino) pyrrolidine-1-carboxylate]  1.82 nM
16. CC(Cc1c[nH]c(=O)c(C(F)(F)F)c1)OC(=O)N1CCN(c2ncccc2C#N)CC1 (stereo not drawn) [Example 46, 1-(6-Oxo-5-(trifluoromethyl)-1,6-dihydropyridin-3-yl)propan-2-yl 4-(3-cyanopyridin-2-yl)piperazine-1-carboxylate]  1.94 nM
17. CC(Cc1c[nH]c(=O)c(C(F)(F)F)c1)OC(=O)N1CCN(c2ccc(C#N)cn2)CC1 (stereo not drawn) [Example 64, 1-(6-Oxo-5-(trifluoromethyl)-1,6-dihydropyridin-3-yl)propan-2-yl 4-(5-cyanopyridin-2-yl)piperazine-1-carboxylate]  1.99 nM
18. CC(Cc1c[nH]c(=O)c(C(F)(F)F)c1)OC(=O)N1CCN(c2ccc(C(F)(F)F)cn2)CC1 (stereo not drawn) [Example 62, 1-(6-Oxo-5-(trifluoromethyl)-1,6-dihydropyridin-3-yl)propan-2-yl 4-(5-(trifluoromethyl)pyridin-2-yl)piperazine-1-carboxylate]  2.09 nM
19. CC(Cc1c[nH]c(=O)c(C(F)(F)F)c1)OC(=O)N1CCN(c2ncc(C#N)cn2)CC1 (stereo not drawn) [Example 45, 1-(6-Oxo-5-(trifluoromethyl)-1,6-dihydropyridin-3-yl)propan-2-yl 4-(5-cyanopyrimidine-2-yl)piperazine-1-carboxylate]  2.26 nM
20. O=C(O[C@H]1CCC[C@@H]1c1c[nH]c(=O)c(C(F)(F)F)c1)N1CCN(c2ncc(C(F)(F)F)cn2)CC1 [Example 56, (1S,2R)-2-(6-Oxo-5-(trifluoromethyl)-1,6-dihydropyridin-3-yl)cyclopentyl 4-(5-(trifluoromethyl)pyrimidin-2-yl)piperazine-1-carboxylate]  2.27 nM
21. C[C@@H](Cc1c[nH]c(=O)c(C(F)(F)F)c1)OC(=O)N1CC[C@@H](Nc2ncc(C(F)(F)F)cn2)C1 [Example 53, (S)-1-(6-Oxo-5-(trifluoromethyl)-1,6-dihydropyridin-3-yl)propan-2-yl (R)-3-((5-(trifluoromethyl)pyrimidin-2-yl)amino) pyrrolidine-1-carboxylate]  2.3 nM
22. CC(Cc1c[nH]c(=O)c(C(F)(F)F)c1)OC(=O)N1CCN(c2ncc(Br)cn2)CC1 (stereo not drawn) [Example 63, 1-(6-Oxo-5-(trifluoromethyl)-1,6-dihydropyridin-3-yl)propan-2-yl 4-(5-bromopyrimidin-2-yl)piperazine-1-carboxylate]  3.12 nM
23. O=C(COCC1CCCC1c1c[nH]c(=O)c(C(F)(F)F)c1)N1CCN(c2ncc(C(F)(F)F)cn2)CC1 (stereo not drawn) [Example 58, 5-(2-((2-Oxo-2-(4-(5-(trifluoromethyl)pyrimidin-2-yl)piperazin-1-yl)ethoxy)methyl)cyclopentyl)-3-(trifluoromethyl)pyridin-2(1H)-one]  3.18 nM
24. C[C@@H](Cc1c[nH]c(=O)c(C(F)(F)F)c1)OC(=O)NC1CCN(c2ncc(C(F)(F)F)cn2)CC1 [Example 55, (S)-1-(6-Oxo-5-(trifluoromethyl)-1,6-dihydropyridin-3-yl)propan-2-yl (1-(5-(trifluoromethyl)pyrimidin-2-yl)piperidin-4-yl)carbamate]  3.42 nM
25. C[C@@H](Cc1c[nH]c(=O)c(C(F)(F)F)c1)OC(=O)N1CC(Nc2ncc(C(F)(F)F)cn2)C1 [Example 54, (S)-1-(6-Oxo-5-(trifluoromethyl)-1,6-dihydropyridin-3-yl)propan-2-yl 3-((5-(trifluoromethyl)pyrimidin-2-yl)amino) azetidine-1-carboxylate]  6.23 nM
26. CC(C(=O)N1CCN(c2ncc(C(F)(F)F)cn2)CC1)c1c[nH]c(=O)c(C(F)(F)F)c1 (stereo not drawn) [Example 60, 5-(1-Oxo-1-(4-(5-(trifluoromethyl)pyrimidin-2-yl)piperazin-1-yl)propan-2-yl)-3-(trifluoromethyl)pyridin-2(1H)-one]  7.02 nM
27. O=C(CCO[C@@H]1CCC[C@@H]1c1c[nH]c(=O)c(C(F)(F)F)c1)N1CCN(c2ncc(C(F)(F)F)cn2)CC1 [Example 47, 5-((1R,2R)-2-(3-Oxo-3-(4-(5-(trifluoromethyl)pyrimidin-2-yl)piperazin-1-yl)propoxy)cyclopentyl)-3-(trifluoromethyl)pyridin-2(1H)-one]  7.22 nM
